Our source for the IC50 values is patent publication US20240025891A1 (Celgene Corporation, priority 2020, published 2024).

The experiment has as its system Onchocerca gutturosa adult male worms. Nature of the experiment: Onchocerciasis in vitro screening model Onchocerca gutturosa (worm motility score and MTT/formazan colorimetry). Particulars: Onchocerca gutturosa, read-out: O. gutt Act class.

Experimental: Onchocerciasis: In Vitro Screening Model Onchocerca gutturosa
Parasite and cell cultures. Onchocerca gutturosa adult male worms were obtained by dissection from the nuchal ligament connective tissues of naturally infected cattle, from Gambia, W Africa.
The worms were maintained for at least 24 h in culture before use in Eagles Minimum Essential Medium with Earl's Salts (Gibco, UK)+10% heat inactivated new born calf serum (Gibco, UK)+antibiotic cover of 200 units/ml penicillin, 200 μg/ml streptomycin and 0.5 μg/ml amphotericin B (Sigma, UK). Only normally active specimens were used in the test. All cultures and assays were conducted at 37° C. under an atmosphere of 5% CO2 in air.
Drug sensitivity assays. Compound stock solutions were prepared in 100% DMSO unless otherwise indicated and diluted into the medium. Any unused compound stocks were stored at −20° C. Assays were performed in sterile 24-well (2 ml) plates (Falcon, UK).
Worms were then transferred individually to each well of the plate using fine forceps. Worm viability was assessed using 2 parameters: • The measurement of mean worm motility scores on a scale of 0 (immotile) to 10 (maximum) every 24 h, terminating at 120 h, using an Olympus inverted microscope. • The biochemical evaluation of worm viability using MTT/formazan colorimetry. The MTT assay was carried out after the last motility reading (120 h). Single intact worms were placed in each well of a 48-well plate (Falcon, UK) containing 0.5 ml of a solution consisting of 0.5 mg/ml MTT (Sigma UK) in phosphate buffered saline, and then incubated for 30 min at 37° C. The worms were removed, blotted carefully, and individually transferred to separate wells of a 96-well microtiter plate, each containing 200 μl of DMSO to solubilize the formazan. After 1 h the plate was gently agitated to disperse the color evenly and the absorbance value (optical density) of the resulting formazan solution was determined at 490 nm using a multi-well scanning spectrophotometer (Elisa-reader, Dynatech, UK). Inhibition of formazan formation was correlated with worm damage or death.
Primary screen. New compounds were usually tested at 1.25×10^−5 M. Also expressed in μg/ml.
Secondary screen. […] Serial 1 in 4 drug dilutions was carried out to find activity endpoint and EC50 values for motility reduction and inhibition of formazan formation were produced. EC50 values were determined using Excel or Origin V7 scientific graphing and data analysis software.

Regarding `c1ccc(-c2ccnc(Nc3cnc(-c4ccccn4)s3)c2)cc1` [Example 112, N-(4-phenylpyridin-2-yl)-2-(pyridin-2-yl)thiazol-5-amine], the IC50 lay in the range of 200 to 500 nM.

Take `Cc1cnc(Nc2nc(-c3ccccn3)cs2)cc1C(F)(F)F` [Example 129, N-(5-methyl-4-(trifluoro-methyl)pyridin-2-yl)-4-(pyridin-2-yl)thiazol-2-amine]: the IC50 is less than 200 nM.

Consider `CC(C)(O)C(=O)N1CCN(c2ccc(Nc3nc(-c4ccccn4)cs3)nc2)CC1` [Example 156, 2-hydroxy-2-methyl-1-(4-(6-(4-(pyridin-2-yl)thiazol-2-ylamino)pyridin-3-yl)piperazin-1-yl)propan-1-one], for which the IC50 was less than 200 nM.

On to `CC(=O)N(C)c1cc(C(F)(F)F)cnc1Nc1nc(-c2cc(OC(C)C)ccn2)cs1` [Example 82, N-(2-(4-(4-isopropoxypyridin-2-yl)thiazol-2-ylamino)-5-(trifluoromethyl)pyridin-3-yl)-N-methylacetamide], for which the IC50 is less than 200 nM.

As for `CCOc1ccc(Nc2nc(-c3ccc(OCC)cn3)cs2)nc1` [Example 87, N,4-bis(5-ethoxypyridin-2-yl)thiazol-2-amine], the IC50 was less than 200 nM.

Regarding `CCOc1ccc(-c2csc(Nc3cc(C)ccn3)n2)nc1` [Example 91, 4-(5-ethoxypyridin-2-yl)-N-(4-methylpyridin-2-yl)thiazol-2-amine], the IC50 is less than 200 nM.

`CCc1sc(Nc2cccc(C(F)(F)F)n2)nc1-c1ccccn1` [Example 194, 5-ethyl-4-(pyridin-2-yl)-N-(6-(trifluoromethyl)pyridin-2-yl)thiazol-2-amine]: the IC50 is 500 to 5000 nM.

Consider `CN1CCN(c2ccc(Nc3nc(-c4ccccn4)cs3)nc2)CC1` [Example 131, N-(5-(4-methyl-piperazin-1-yl)pyridin-2-yl)-4-(pyridin-2-yl)thiazol-2-amine], for which the IC50 is less than 200 nM.

For the molecule `O=C(NCC(F)(F)F)c1ccnc(Nc2nc(-c3ccccn3)c(CO)s2)c1` [Example 211, 2-(5-(hydroxy-methyl)-4-(pyridin-2-yl)thiazol-2-ylamino)-N-(2,2,2-trifluoroethyl) isonicotinamide], the IC50 was 200 to 500 nM.

For the molecule `O=C(O)c1sc(Nc2cc(C(F)(F)F)ccn2)nc1-c1ccccn1` [Example 206, 4-(pyridin-2-yl)-2-(4-(trifluoromethyl)pyridin-2-ylamino) thiazole-5-carboxylic acid], the IC50 is less than 200 nM.

Turning to `NC(=O)c1ccnc(Nc2nc(-c3ccccn3)cs2)c1` [Example 139, 2-(4-(pyridin-2-yl)thiazol-2-ylamino) iso-nicotinamide], the IC50 was less than 200 nM.

With `CCOc1ccnc(-c2csc(Nc3cc(C)ccn3)n2)c1` [Example 224, 4-(4-ethoxypyridin-2-yl)-N-(4-methylpyridin-2-yl)thiazol-2-amine], the IC50 was in the range of 200 to 500 nM.

Take `CCOc1ccc(-c2csc(Nc3ncc(F)cc3C)n2)nc1` [Example 79, 4-(5-ethoxypyridin-2-yl)-N-(5-fluoro-3-methylpyridin-2-yl)thiazol-2-amine]: the IC50 is less than 200 nM.

In the case of `Cn1cc(-c2ccnc(Nc3nc(-c4ccccn4)cs3)c2)cn1` [Example 161, N-(4-(1-methyl-1H-pyrazol-4-yl)pyridin-2-yl)-4-(pyridin-2-yl)thiazol-2-amine], the IC50 was less than 200 nM.

With `CCNC(=O)c1ccnc(Nc2nc(-c3ccccn3)cs2)c1` [Example 178, N-ethyl-2-(4-(pyridin-2-yl)thiazol-2-ylamino) isonicotinamide], the IC50 was less than 200 nM.

For `Cc1ccnc(Nc2nc(-c3ccc(Cl)cn3)cs2)c1` [Example 89, 4-(5-chloropyridin-2-yl)-N-(4-methylpyridin-2-yl)thiazol-2-amine], the IC50 lay within 200 to 500 nM.

`O=C(NCC(F)(F)F)c1ccnc(Nc2nc(-c3ccccn3)cs2)c1` [Example 141, 2-(4-(pyridin-2-yl)thiazol-2-ylamino)-N-(2,2,2-trifluoroethyl) isonicotinamide]: the IC50 was in the range of 200 to 500 nM.

As to `Cc1cccnc1Nc1nc(-c2ccc(Cl)cn2)cs1` [Example 94, 4-(5-chloropyridin-2-yl)-N-(3-methylpyridin-2-yl)thiazol-2-amine], the IC50 was less than 200 nM.

In the case of `CN(C)CCNC(=O)c1sc(Nc2cc(C(F)(F)F)ccn2)nc1-c1ccccn1` [Example 208, N-(2-(dimethylamino)ethyl)-4-(pyridin-2-yl)-2-(4-(trifluoro-methyl)pyridin-2-ylamino) thiazole-5-carboxamide], the IC50 is less than 200 nM.

As to `C[C@@H](CO)NC(=O)c1ccnc(Nc2nc(-c3ccccn3)cs2)c1` [Example 148, (S)-N-(1-hydroxy-propan-2-yl)-2-(4-(pyridin-2-yl)thiazol-2-ylamino) isonicotinamide], the IC50 fell in the range of 200 to 500 nM.

On to `COc1ccc(-c2csc(Nc3cc(C)ccn3)n2)nc1` [Example 225, 4-(5-methoxypyridin-2-yl)-N-(4-methylpyridin-2-yl)thiazol-2-amine], for which the IC50 is less than 200 nM.

For the molecule `Cc1ccnc(Nc2nc(-c3ccccn3)c(C(C)(C)C)s2)c1` [Example 181, 5-tert-butyl-N-(4-methylpyridin-2-yl)-4-(pyridin-2-yl)thiazol-2-amine], the IC50 lay within 200 to 500 nM.

Consider `CCOc1ccc(-c2csc(Nc3ccc(C(F)(F)F)cn3)n2)nc1` [Example 95, 4-(5-ethoxypyridin-2-yl)-N-(5-(trifluoromethyl)pyridin-2-yl)thiazol-2-amine], for which the IC50 is less than 200 nM.

As to `c1ccc(-c2csc(Nc3cc(-c4cccnn4)ccn3)n2)nc1` [Example 169, N-(4-(pyridazin-3-yl)pyridin-2-yl)-4-(pyridin-2-yl)thiazol-2-amine], the IC50 was less than 200 nM.

For `c1ccc(-c2csc(Nc3ccc4cc[nH]c4n3)n2)nc1` [Example 134, 4-(pyridin-2-yl)-N-(1H-pyrrolo [2,3-b]pyridin-6-yl)thiazol-2-amine], the IC50 is less than 200 nM.

Turning to `c1ccc(-c2csc(Nc3ncccn3)n2)nc1` [Example 213, 4-(pyridin-2-yl)-N-(pyrimidin-2-yl)thiazol-2-amine], the IC50 was in the range of 500 to 5000 nM.

For `CCOc1ccc(-c2csc(Nc3nc(C)ccc3C)n2)nc1` [Example 86, N-(3,6-dimethylpyridin-2-yl)-4-(5-ethoxypyridin-2-yl)thiazol-2-amine], the IC50 is less than 200 nM.

On to `CC(C)c1cnc(Nc2nc(-c3ccccn3)cs2)cc1C(F)(F)F` [Example 127, N-(5-isopropyl-4-(trifluoro-methyl)pyridin-2-yl)-4-(pyridin-2-yl)thiazol-2-amine], for which the IC50 lay in the range of 500 to 5000 nM.

For `Cc1ccnc(Nc2nc(-c3ccccn3)c(COCC3CCC3)s2)c1` [Example 182, 5-((cyclobutyl-methoxy)methyl)-N-(4-methylpyridin-2-yl)-4-(pyridin-2-yl)thiazol-2-amine], the IC50 lay in the range of 200 to 500 nM.

Turning to `c1ccc(-c2ccnc(Nc3ncc(-c4ccccn4)o3)c2)cc1` [Example 229, N-(4-phenylpyridin-2-yl)-5-(pyridin-2-yl)oxazol-2-amine], the IC50 lay in the range of 500 to 5000 nM.

Consider `O=C(c1sc(Nc2cc(C(F)(F)F)ccn2)nc1-c1ccccn1)N1CCCCC1` [Example 200, piperidin-1-yl(4-(pyridin-2-yl)-2-(4-(trifluoromethyl)pyridin-2-ylamino)thiazol-5-yl)methanone], for which the IC50 lay within 500 to 5000 nM.

With `Cc1ccnc(Nc2nc(-c3cc(OC4COC4)ccn3)cs2)c1` [Example 102, N-(4-methylpyridin-2-yl)-4-(4-(oxetan-3-yloxy)pyridin-2-yl)thiazol-2-amine], the IC50 is less than 200 nM.

Turning to `C[C@@H]1CN(C(=O)c2sc(Nc3cc(C(F)(F)F)ccn3)nc2-c2ccccn2)C[C@H](C)O1` [Example 187, ((2S,6R)-2,6-dimethyl-morpholino) (4-(pyridin-2-yl)-2-(4-(trifluoromethyl)pyridin-2-ylamino)thiazol-5-yl)methanone], the IC50 is less than 200 nM.

Regarding `OCc1sc(Nc2cc(C(F)(F)F)ccn2)nc1-c1ccccn1` [Example 165, (4-(pyridin-2-yl)-2-(4-(trifluoromethyl)pyridin-2-ylamino)thiazol-5-yl)methanol], the IC50 was less than 200 nM.

On to `Cc1cccnc1Nc1cnc(-c2ccc(OC3CCOCC3)cn2)s1` [Example 111, N-(3-methylpyridin-2-yl)-2-(5-(tetrahydro-2H-pyran-4-yloxy)pyridin-2-yl)thiazol-5-amine], for which the IC50 was less than 200 nM.

Take `CNC(=O)C1CCCN(c2ccc(Nc3nc(-c4ccccn4)cs3)nc2)C1` (stereo not shown) [Example 159, N-methyl-1-(6-(4-(pyridin-2-yl)thiazol-2-ylamino)pyridin-3-yl)piperidine-3-carboxamide]: the IC50 lay within 200 to 500 nM.

As to `Cc1ccnc(Nc2cc(-c3ncccc3C)ns2)c1` [Example 118, 3-(3-methylpyridin-2-yl)-N-(4-methylpyridin-2-yl)isothiazol-5-amine], the IC50 was 500 to 5000 nM.

For the molecule `FC(F)(F)c1ccnc(Nc2nc(-c3ccccn3)c(CN3CCOCC3)s2)c1` [Example 210, 5-(morpholino-methyl)-4-(pyridin-2-yl)-N-(4-(trifluoromethyl)pyridin-2-yl) thiazol-2-amine], the IC50 is less than 200 nM.

For the molecule `Oc1ccc(Nc2nc(-c3ccccn3)cs2)nc1` [Example 122, 6-(4-(pyridin-2-yl)thiazol-2-ylamino) pyridin-3-ol], the IC50 lay in the range of 500 to 5000 nM.

`Cc1cnc(Nc2nc(-c3ccccn3)cs2)c(C)c1` [Example 124, N-(3,5-dimethyl-pyridin-2-yl)-4-(pyridin-2-yl)thiazol-2-amine]: the IC50 was less than 200 nM.

Turning to `CCOc1cccnc1-c1csc(Nc2cc(C)ccn2)n1` [Example 72, 4-(3-ethoxypyridin-2-yl)-N-(4-methylpyridin-2-yl)thiazol-2-amine], the IC50 was less than 200 nM.

Consider `O=C(c1ccnc(Nc2nc(-c3ccccn3)cs2)c1)N1CCOCC1` [Example 143, morpholino (2-(4-(pyridin-2-yl)thiazol-2-ylamino)pyridin-4-yl)methanone], for which the IC50 is 200 to 500 nM.

Take `CN1CCN(C(=O)c2sc(Nc3cc(C(F)(F)F)ccn3)nc2-c2ccccn2)CC1` [Example 191, (4-methylpiperazin-1-yl)(4-(pyridin-2-yl)-2-(4-(trifluoromethyl)pyridin-2-ylamino)thiazol-5-yl)methanone]: the IC50 lay in the range of 500 to 5000 nM.
